Source: a melting point compilation (Tetko et al.; mined from patent text by program, amines drawn as free bases though some values may be those of a salt)

Row | melting point | Compound
1 | 260 to 270 °C | O=C1c2ccc(S(=O)(=O)c3ccccc3)cc2C(=O)c2c1c(Oc1ccccc1)c1ccccc1c2Oc1ccccc1
2 | 90 to 91 °C | COc1cc(COc2nn(Cc3ccccc3)cc2CO)ccc1OCc1nc(-c2ccccc2)oc1C
3 | 90 to 92 °C | CCC(OCCc1ccc(-c2ccc(Cl)cc2)cc1)C(=O)O (stereo not drawn)
4 | 227 to 229 °C | CCCC(C)C(=O)N1CC(NC(=O)Nc2cccc(C(=O)O)c2)C(=O)N(CC(=O)c2ccccc2C)c2cc(C)ccc21 (stereo not drawn)
5 | 95 to 98 °C | COc1cc(NC(=O)N(CCCCCC(=O)O)c2ccccc2)c(O)c(C(C)(C)C)c1
6 | 201 to 204 °C | O=C(CNN1C(=O)c2ccccc2S1(=O)=O)N[C@@H](Cc1ccccc1)C(=O)O
7 | 118 to 123 °C | CCc1nc2c(C)cc(C)nc2n1Cc1ccc(C(CC(=O)NS(C)(=O)=O)c2ccccc2)cc1 (stereo not drawn)
8 | 81 °C | CC(C)CNc1nc(-c2ccccc2)cn2ccnc12
9 | 149 to 152 °C | CCOC(=O)c1cc(NCc2ccccc2)c(Nc2cccc(OC)c2)c(S(N)(=O)=O)c1
10 | 175 to 177 °C | CCCCc1ncc(/C=C(\Cc2cccs2)C(=O)O)n1Cc1ccccc1Cl
11 | 157 to 160 °C | N#CCOc1ccc2cc(-c3csc(-c4ccccc4)n3)ccc2c1Br
12 | 218 to 220 °C | Nc1c(-c2ccc(Oc3ccccc3)cc2)nc2ccccc2c1C(=O)O
13 | 147 to 148 °C | COc1ccc(CN2C(=O)C3(COc4cc5c(cc43)OCO5)c3ccccc32)cc1 (stereo not drawn)
14 | 183 to 185 °C | N#Cc1ccc2oc(CCc3ccc(C(=O)Nc4cnccn4)cc3)cc2c1
15 | 141 to 143 °C | O=C(O)C(=O)c1ccc(OCC(=O)c2cccc3ccccc23)cc1
16 | 150 to 152 °C | COc1cc(Cn2c(-c3ccc(OCc4ccccc4)cc3)c(C)c3cc(OCc4ccccc4)ccc32)ccc1OCCBr
17 | 94 to 96 °C | ON=C(Cc1ccccc1)c1ccccc1
18 | 166 to 168 °C | CC(C(=O)Oc1cc(=O)n(-c2ccccc2)c2ncccc12)c1ccccc1 (stereo not drawn)
19 | 129 to 130 °C | O=C(O)C(=O)c1ccc(OCCOc2ccc([N+](=O)[O-])cc2)cc1
20 | 68 to 70 °C | N#Cc1ccc(OCc2ccsc2)cc1OC(C(=O)O)c1ccccc1Cl (racemic)
21 | 213 to 214 °C | O=C(CCl)Nc1ccc2c(c1NC(=O)Cc1ccc(F)cc1)C(=O)c1ccccc1C2=O

More lines, now with the values behind:

Row | Compound | melting point
22 | COc1ccc(C2CCCCC2)cc1-c1csc(NC(=O)N2CCN(C3CCOCC3)CC2)n1 | 226 °C
23 | CC(C)(C)P(=O)(O)CCCN | 253 to 255 °C
24 | CC1(C)C=CC=CC1NCC1=NCCN1 (stereo not drawn) | 80 to 82 °C
25 | Cc1oc(-c2ccc(C(F)(F)F)cc2)nc1COc1cccc(Cn2oc(=O)[nH]c2=O)c1 | 142 to 143 °C
26 | CCCCc1c(C(=O)c2ccc(O)cc2)sc2ccc([N+](=O)[O-])cc12 | 182 °C
27 | CC1CC(=O)NN=C1c1ccc(NC(=O)C2CC2)cc1 (stereo not drawn) | 267 to 268 °C
28 | CCCN(CCC)C(=O)Cn1c(-c2ccc(F)cc2)nc2cccnc21 | 135 to 136 °C
29 | COc1cccc(SCCC(=O)O)c1F | 72 to 74 °C
30 | O=C1C(=O)c2ccccc2C2=C1SCC1(CCSCC1)O2 | 221 to 223 °C
31 | CCCc1c(O)c(C(C)=O)cc(Cl)c1OCCCOc1ccc2ccc(OCC(=O)OC)cc2c1C(C)=O | 121 to 124 °C
32 | CCc1nc2c(ccc3nc(C)c(C)nc32)cc1C | 137 to 138 °C
33 | Nc1nc(NCCC2CCCCC2)nc2c1ncn2C1OC(CO)C(O)C1O (stereo not drawn) | 142 to 145 °C
34 | CCc1cccc2c(C=O)cc(Cl)c(O)c12 | 139 to 142 °C
35 | Cc1cc(Oc2ncc(C(F)(F)F)cc2Cl)nn1C(=O)Nc1ccc(C(F)(F)F)cc1 | 164 to 167 °C
36 | CN(C=C(C#N)C#N)c1ccc(O)cc1 | 187 to 189 °C
37 | CCCn1c(=O)c2[nH]c(-c3cc(C)n(CC(=O)Nc4ccc(C)c(C)c4)n3)nc2n(CCC)c1=O | 261 to 265 °C
38 | CC1(C)CCC(=O)Nc2ccc(N)cc21 | 168 °C
39 | CCOC(=O)c1sc2ncccc2c1Br | 100 to 102 °C
40 | Cc1[nH]c(=O)n(-c2cc(C(=O)OC(C)C)c(Cl)cc2F)c(=O)c1[N+](=O)[O-] | 202 to 205 °C
41 | CC1(C)CCC(=O)Nc2ccc(Nc3ncc(Cl)c(Nc4ccccc4-c4nccs4)n3)cc21 | 224 °C
42 | CC1CCCC(C)N1NC(=O)Nc1cccc2c1C(=O)c1c-2n[nH]c1-c1ccc(N2CCNCC2)cc1 (stereo not drawn) | 270 °C
43 | CC(=O)NCc1ccc(C(=O)CBr)s1 | 129 to 131 °C
44 | CCc1cc2c(=O)c3cccc(C(=O)OCOC(=O)C(C)(C)C)c3n(Cc3ccc(-c4ccccc4-c4nnn[nH]4)cc3)c2s1 | 146 to 152 °C
45 | NCCCCNC(=O)C1(NC(=O)CCCC(=O)O)Cc2ccccc2C1 | 132 °C

Row | Compound | melting point
46 | CCC(=O)OCC(CCn1cnc2cnc(N)nc21)COC(=O)CC | 77.5 to 79 °C
47 | CS(=O)(=O)c1ccc(-c2cnn(-c3ccc([N+](=O)[O-])s3)c(=O)c2-c2ccc(F)cc2)cc1 | 252 to 253 °C
48 | CCN(c1ccc(C(=O)O)cc1)c1cc2c3c(c1)CCCC3CCC2 | 284 to 285 °C
49 | Cc1ccc(S(=O)(=O)N2[C@@H](c3nnn(C)n3)CC[C@H]2c2ccc(F)cc2)cc1 (racemic) | 150 °C
50 | CCOC(=O)c1cnc2c(F)c(F)ccc2c1 | 118 °C
51 | CC1=C(C(=O)N(C)Cc2ccc(Cl)cc2)SC2=NC(C)(C)CN21 | 139 °C
52 | CC(=O)OCc1cccc([N+](=O)[O-])c1Br | 60 to 63 °C
53 | CC(C)c1ccc(-n2cc(C#N)cc2N)c(Br)c1 | 106 °C
54 | CC(C)C(C)OC(=S)c1ccc(N)cc1Cl (stereo not drawn) | 43 to 46 °C
55 | N=C(Nc1cccc([N+](=O)[O-])c1)N1CCCC1 | 117 to 118 °C
56 | Cn1cc(C(=O)NCc2ccc(Cl)cc2)c(=O)c2cc(C(C)(C)CCO)ccc21 | 135 to 138 °C
57 | C1=C(c2cccnc2)CCC(N2CCN(c3ccccn3)CC2)C1 (stereo not drawn) | 146 to 148 °C
58 | CCOC(=O)c1nn(-c2ccc(Cl)cc2Cl)c(-c2ccc(Cl)cc2)c1C#N | 112 °C
59 | COc1cc(-n2cccn2)ccc1-n1cc(OC)c(=O)c(-c2ccnn2-c2cccc(C(F)(F)F)c2)n1 | 215 to 217 °C
60 | CN1C(=O)CN=C(c2ccccc2F)c2cc(NC(=O)NCCCl)ccc21 | 240 °C
61 | CC(C)N1CCN(CCCOc2ccc3nc(C#N)nc(NCC(C)(C)C)c3c2)CC1 | 103 to 105 °C
62 | O=C(ON1C(=O)CCC1=O)c1ccco1 | 126 to 127 °C
63 | COC(=O)c1ccc(C#Cc2ccc(OCC(O)CO)c(C34CC5CC(CC(C5)C3)C4)c2)cc1 (stereo not drawn) | 202 to 203 °C
64 | COc1cc(OC)nc(Sc2c([N+](=O)[O-])nc(C)n2C)n1 | 228 to 230 °C
65 | CN1CCC(=O)N(c2cccc(Cl)c2Cl)C1=O | 163 to 165 °C
66 | CN(C)Cc1nnc2n1-c1sc(Cl)cc1C(c1ccccc1[N+](=O)[O-])=NC2 | 234 to 236 °C
67 | Cc1sc2c(c1C)C(c1ccc(Cl)cc1)=NC(CC(=O)NCc1cccnc1)c1nnc(C)n1-2 (stereo not drawn) | 180 to 183 °C
68 | COc1c(C(O)CNC(C)(C)Cc2ccccc2)ccc(O)c1O (stereo not drawn) | 149 to 150 °C
